In patent US20140323500A1, “NADPH OXIDASE 4 INHIBITORS AND USE THEREOF” (GENKYOTEX SA, priority 2011, published 2014):

System: female mice subjected to ovariectomy
Test: Ovariectomy-induced osteoporosis (bone loss) in mice
Format: in vivo
Method: BMD of the left femur was measured by peripheral quantitative computed tomography (QCT) using an XCT Research QCT machine (Stratec Medizintechnik, Pforzheim, Germany). One slice (0.2 mm thick) in the mid-diaphysis of the femur and 3 slices in the distal femoral metaphysis located 1.5, 2, and 2.5 mm proximal to the articular surface of the knee joint were measured. BMD values of the distal femoral metaphysic were calculated as the mean of 3 slices. A voxel size of 0.070 mm and a threshold of 710 mg/cm^3 were used for calculation of BMD as described in Hofbauer et al., 2009, Arthritis Rheum., 60(5):1427-1437.
The control group received daily gavages by the solvent.
To study the latter effect, female mice were subjected to ovariectomy to induce osteoporosis and the effect of pharmacological inhibition of Nox4 with a Nox4 inhibitor as well as acute genetic knockout of the protein was studied. For this, mice were subjected to ovariectomy 8 weeks after birth and treatment at 60 mg/kg with a Nox4 inhibitor of the invention was started 2 days after the operation and continued throughout the study (6 weeks).
3, Hamburg was used which completely blocks osteoclast activity. […] For this, bones were scanned with a skyscan 1176 and bone density was analysed with the integrated software using two phantoms with 0.25 g/cm^3 and 0.75 g/cm^3 as reference. A 2 mm portion of the femur from the tibia plateau was analysed for total and trabecular bone density by the software provided by the manufacturer of the machine. […] For this method, the femurs were loaded to failure by 3-point bending tests using a Zwick Z020/TN2A materials testing machine (Zwick, Ulm, Germany) with a 1 kN force detector, and a force resolution of 0.01N. The distance between the lower supports for the bending tests was 5 mm. Crosshead speed during testing was 0.2 mm/minute for all measurements. From the force-displacement data, ultimate force (Fmax; in N) was calculated.

COc1ccc(-c2c3c(=O)n(-c4ccccc4OC)[nH]c3cc(=O)n2Cc2cccnc2)c(F)c1 [Compound (1), 4-(2-fluoro-4-methoxyphenyl)-2-(2-methoxyphenyl)-5-(pyridin-3-ylmethyl)-1H-pyrazolo[4,3-c]pyridine-3,6(2H,5H)-dione] was tested, and the “absolute bone density (total)” value (distal femur 6 weeks after ovariectomy, compound 1 at 20 and 60 mg/kg, pamidronat 10 mg/kg once a week, microCT, FIG. 6A) was “increased absolute bone density”, the “absolute trabecular bone density” value (distal femur 6 weeks after ovariectomy, compound 1 at 20 and 60 mg/kg, pamidronat 10 mg/kg once a week, microCT, FIG. 6B) was “increased” and the “relative inhibition of ovarectomy-induced total bone loss” value (distal femur 6 weeks after ovariectomy, compound 1 at 20 and 60 mg/kg, pamidronat 10 mg/kg once a week, microCT, FIG. 6C) was roughly 50%. The “relative inhibition of trabecular bone loss” value (distal femur 6 weeks after ovariectomy, compound 1 at 20 and 60 mg/kg, pamidronat 10 mg/kg once a week, microCT, FIG. 6D) was “approximately 60%” and the “bone breaking strength (3-point breaking test)” value (highest concentration (of 20 and 60 mg/kg), femur, 6 weeks after ovariectomy, FIG. 6E) was “significant increase in bone breaking strength”.
